Test results as given in patent US8754130B2, “Compositions of dibromomalonamide and their use as biocides” (Dow Global Technologies LLC, priority 2009, dated 2014).
Where two headings read alike, the source gives them in different places.

Experiments:
[1] = Growth inhibition assay (microtiter plate-based synergy assay); format: cell-based; details: 24 h
[2] = test system: consortium of bacteria: mixture of Pseudomonas aeruginosa, Klebsiella pneumoniae, Staphylococcus aureus, and Bacillus subtilis; experiment: as above; format: cell-based; details: 24 h; for I90 value (minimum concentration in which growth of the consortium is at least 90% less than controls): single active alone

SMILES: CCCCCCCCn1sccc1=O [OIT, 2-n-octyl-4-isothiazolin-3-one]
- inhibition at 3.91 µg/mL ([1]; OIT 3.91 mg/l alone): 0%
- inhibition at 7.81 µg/mL ([1]; OIT 7.81 mg/l alone): 7%
- inhibition at 15.63 µg/mL ([1]; OIT 15.63 mg/l alone): 24%
- inhibition at 31.25 µg/mL ([1]; OIT 31.25 mg/l alone): 43%
- inhibition at 62.5 µg/mL ([1]; OIT 62.5 mg/l alone): 64%
- inhibition at 125 µg/mL ([1]; OIT 125.0 mg/l alone): 100%
- inhibition at 250 µg/mL ([1]; OIT 250.0 mg/l alone): 100%
- inhibition at 500 µg/mL ([1]; OIT 500.0 mg/l alone): 100%
- I90 value (minimum concentration in which growth of the consortium is at least 90% less than controls) [2]: 125 mg/L

SMILES: Cn1sccc1=O [MIT, 2-methyl-4-isothiazolin-3-one]
- inhibition at […] ([1]; MIT 0.19 mg/l alone): 0%
- inhibition at 0.39 µg/mL ([1]; MIT 0.39 mg/l alone, read-out: % Inhibition of growth by MIT): 0%
- inhibition at 0.78 µg/mL ([1]; MIT 0.78 mg/l alone, read-out: % Inhibition of growth by MIT): 0%
- inhibition at 1.56 µg/mL ([1]; MIT 1.56 mg/l alone, read-out: % Inhibition of growth by MIT): 6%
- inhibition at 3.13 µg/mL ([1]; MIT 3.13 mg/l alone, read-out: % Inhibition of growth by MIT): 6%
- inhibition at 6.25 µg/mL ([1]; MIT 6.25 mg/l alone, read-out: % Inhibition of growth by MIT): 16%
- inhibition at 12.5 µg/mL ([1]; MIT 12.5 mg/l alone, read-out: % Inhibition of growth by MIT): 38%
- inhibition at 25 µg/mL ([1]; MIT 25.0 mg/l alone, read-out: % Inhibition of growth by MIT): 96%
- I90 value (minimum concentration in which growth of the consortium is at least 90% less than controls) [2]: 25 mg/L

SMILES: Cn1sc(Cl)cc1=O [CMIT, 5-chloro-2-methyl-4-isothiazolin-3-one]
- inhibition at 0.39 µg/mL ([1]; CMIT 0.39 mg/l alone, read-out: % Inhibition of growth by CMIT): 10%
- inhibition at 0.78 µg/mL ([1]; CMIT 0.78 mg/l alone, read-out: % Inhibition of growth by CMIT): 97%
- inhibition at 1.56 µg/mL ([1]; CMIT 1.56 mg/l alone, read-out: % Inhibition of growth by CMIT): 96%
- inhibition at 3.13 µg/mL ([1]; CMIT 3.13 mg/l alone, read-out: % Inhibition of growth by CMIT): 98%
- inhibition at 6.25 µg/mL ([1]; CMIT 6.25 mg/l alone, read-out: % Inhibition of growth by CMIT): 97%
- inhibition at 12.5 µg/mL ([1]; CMIT 12.5 mg/l alone, read-out: % Inhibition of growth by CMIT): 96%
- inhibition at 25 µg/mL ([1]; CMIT 25.0 mg/l alone, read-out: % Inhibition of growth by CMIT): 98%
- I90 value (minimum concentration in which growth of the consortium is at least 90% less than controls) [2]: 0.78 mg/L

SMILES: CCCCn1sc2ccccc2c1=O [BBIT, N-butyl-1,2-benzisothiazolin-3-one]
- % Inhibition of growth by BBIT ([2]; BBIT 6.25 mg/l alone): 32%
- % Inhibition of growth by BBIT ([2]; BBIT 12.5 mg/l alone): 24%
- % Inhibition of growth by BBIT ([2]; BBIT 25.0 mg/l alone): 49%
- I90 value (minimum concentration in which growth of the consortium is at least 90% less than controls) [2]: 50.0 mg/L

SMILES: NC(=O)C(Br)(Br)C(N)=O [DBMAL, 2,2-dibromomalonamide]
- inhibition at 0.39 µg/mL ([1]; Table 2, DBMAL 0.39 mg/l alone, read-out: % Inhibition of growth by DBMAL): 11%
- inhibition at 0.78 µg/mL ([1]; Table 2, DBMAL 0.78 mg/l alone, read-out: % Inhibition of growth by DBMAL): 13%
- inhibition at 1.56 µg/mL ([1]; Table 2, DBMAL 1.56 mg/l alone, read-out: % Inhibition of growth by DBMAL): 15%
- inhibition at 3.13 µg/mL ([1]; Table 2, DBMAL 3.13 mg/l alone, read-out: % Inhibition of growth by DBMAL): 23%
- inhibition at 6.25 µg/mL ([1]; Table 2, DBMAL 6.25 mg/l alone, read-out: % Inhibition of growth by DBMAL): 0%
- inhibition at 12.5 µg/mL ([1]; Table 2, DBMAL 12.5 mg/l alone, read-out: % Inhibition of growth by DBMAL): 98%
- inhibition at 0.39 µg/mL ([1]; Table 4, DBMAL 0.39 mg/l alone, read-out: % Inhibition of growth by DBMAL): 6%
- inhibition at 0.78 µg/mL ([1]; Table 4, DBMAL 0.78 mg/l alone, read-out: % Inhibition of growth by DBMAL): 2%
- inhibition at 1.56 µg/mL ([1]; Table 4, DBMAL 1.56 mg/l alone, read-out: % Inhibition of growth by DBMAL): 1%
- inhibition at 6.25 µg/mL ([1]; Table 4, DBMAL 6.25 mg/l alone, read-out: % Inhibition of growth by DBMAL): 23%
- inhibition at 25 µg/mL ([1]; Table 4, DBMAL 25.0 mg/l alone, read-out: % Inhibition of growth by DBMAL): 100%
- inhibition at 0.39 µg/mL ([1]; Table 6, DBMAL 0.39 mg/l alone, read-out: % Inhibition of growth by DBMAL): 0%
- inhibition at 0.78 µg/mL ([1]; Table 6, DBMAL 0.78 mg/l alone, read-out: % Inhibition of growth by DBMAL): 6%
- inhibition at 3.13 µg/mL ([1]; Table 6, DBMAL 3.13 mg/l alone, read-out: % Inhibition of growth by DBMAL): 11%
- inhibition at 6.25 µg/mL ([1]; Table 6, DBMAL 6.25 mg/l alone, read-out: % Inhibition of growth by DBMAL): 28%
- inhibition at 12.5 µg/mL ([1]; Table 6, DBMAL 12.5 mg/l alone, read-out: % Inhibition of growth by DBMAL): 100%
- inhibition at 25 µg/mL ([1]; Table 6, DBMAL 25.0 mg/l alone, read-out: % Inhibition of growth by DBMAL): 100%
- inhibition at 0.39 µg/mL ([1]; Table 8, DBMAL 0.39 mg/l alone, read-out: % Inhibition of growth by DBMAL): 3%
- inhibition at 0.78 µg/mL ([1]; Table 8, DBMAL 0.78 mg/l alone, read-out: % Inhibition of growth by DBMAL): 1%
- inhibition at 1.56 µg/mL ([1]; Table 8, DBMAL 1.56 mg/l alone, read-out: % Inhibition of growth by DBMAL): 0%
- inhibition at 3.13 µg/mL ([1]; Table 8, DBMAL 3.13 mg/l alone, read-out: % Inhibition of growth by DBMAL): 8%
- inhibition at 6.25 µg/mL ([1]; Table 8, DBMAL 6.25 mg/l alone, read-out: % Inhibition of growth by DBMAL): 45%
- inhibition at 12.5 µg/mL ([1]; Table 8, DBMAL 12.5 mg/l alone, read-out: % Inhibition of growth by DBMAL): 100%
- inhibition at 25 µg/mL ([1]; Table 8, DBMAL 25.0 mg/l alone, read-out: % Inhibition of growth by DBMAL): 99%
- inhibition at 0.39 µg/mL ([1]; Table 10, DBMAL 0.39 mg/l alone, read-out: % Inhibition of growth by DBMAL): 3%
- inhibition at 0.78 µg/mL ([1]; Table 10, DBMAL 0.78 mg/l alone, read-out: % Inhibition of growth by DBMAL): 0%
- inhibition at 1.56 µg/mL ([1]; Table 10, DBMAL 1.56 mg/l alone, read-out: % Inhibition of growth by DBMAL): 1%
- inhibition at 3.13 µg/mL ([1]; Table 10, DBMAL 3.13 mg/l alone, read-out: % Inhibition of growth by DBMAL): 0%
- inhibition at 6.25 µg/mL ([1]; Table 10, DBMAL 6.25 mg/l alone, read-out: % Inhibition of growth by DBMAL): 44%
- inhibition at 12.5 µg/mL ([1]; Table 10, DBMAL 12.5 mg/l alone, read-out: % Inhibition of growth by DBMAL): 100%
- inhibition at 25 µg/mL ([1]; Table 10, DBMAL 25.0 mg/l alone, read-out: % Inhibition of growth by DBMAL): 100%
- inhibition at 0.39 µg/mL ([1]; Table 12, DBMAL 0.39 mg/l alone, read-out: % Inhibition of growth by DBMAL): 3%
- inhibition at 0.78 µg/mL ([1]; Table 12, DBMAL 0.78 mg/l alone, read-out: % Inhibition of growth by DBMAL): 0%
- inhibition at 1.56 µg/mL ([1]; Table 12, DBMAL 1.56 mg/l alone, read-out: % Inhibition of growth by DBMAL): 1%
- inhibition at 3.13 µg/mL ([1]; Table 12, DBMAL 3.13 mg/l alone, read-out: % Inhibition of growth by DBMAL): 0%
- inhibition at 6.25 µg/mL ([1]; Table 12, DBMAL 6.25 mg/l alone, read-out: % Inhibition of growth by DBMAL): 44%
- inhibition at 12.5 µg/mL ([1]; Table 12, DBMAL 12.5 mg/l alone, read-out: % Inhibition of growth by DBMAL): 100%
- inhibition at 25 µg/mL ([1]; Table 12, DBMAL 25.0 mg/l alone, read-out: % Inhibition of growth by DBMAL): 100%
- inhibition at 0.39 µg/mL ([1]; Table 14, DBMAL 0.39 mg/l alone, read-out: % Inhibition of growth by DBMAL): 3%
- inhibition at 0.78 µg/mL ([1]; Table 14, DBMAL 0.78 mg/l alone, read-out: % Inhibition of growth by DBMAL): 0%
- inhibition at 1.56 µg/mL ([1]; Table 14, DBMAL 1.56 mg/l alone, read-out: % Inhibition of growth by DBMAL): 0%
- inhibition at 3.13 µg/mL ([1]; Table 14, DBMAL 3.13 mg/l alone, read-out: % Inhibition of growth by DBMAL): 0%
- inhibition at 6.25 µg/mL ([1]; Table 14, DBMAL 6.25 mg/l alone, read-out: % Inhibition of growth by DBMAL): 34%
- inhibition at 12.5 µg/mL ([1]; Table 14, DBMAL 12.5 mg/l alone, read-out: % Inhibition of growth by DBMAL): 93%
- inhibition at 25 µg/mL ([1]; Table 14, DBMAL 25.0 mg/l alone, read-out: % Inhibition of growth by DBMAL): 100%

SMILES: O=c1[nH]sc2ccccc12 [BIT, 1,2-benzisothiazolin-3-one]
- % Inhibition of growth by BIT ([2]; BIT 3.91 mg/l alone): 17%
- % Inhibition of growth by BIT ([2]; BIT 7.81 mg/l alone): 46%
- I90 value (minimum concentration in which growth of the consortium is at least 90% less than controls) [2]: 15.63 mg/L

SMILES: Cn1sc2ccccc2c1=O [MBIT, N-methyl-1,2-benzisothiazolin-3-one]
- % Inhibition of growth by MBIT ([2]; MBIT 0.78 mg/l alone): 16%
- % Inhibition of growth by MBIT ([2]; MBIT 1.56 mg/l alone): 13%
- % Inhibition of growth by MBIT ([2]; MBIT 6.25 mg/l alone): 26%
- % Inhibition of growth by MBIT ([2]; MBIT 12.5 mg/l alone): 53%
- % Inhibition of growth by MBIT ([2]; MBIT 25.0 mg/l alone): 23%
- % Inhibition of growth by MBIT ([2]; MBIT 50.0 mg/l alone): 67%
- I90 value (minimum concentration in which growth of the consortium is at least 90% less than controls) [2]: 100.0 mg/L
